Numbers after ± are expanded uncertainties.
Test: xn = mol fraction of the nth substance listed
Details: 323.15 K, 100 kPa, Liquid; for electrical conductivity: Alternating current cell with electrodes; for mass density: Vibrating tube method

CCCC[N+]1(C)CCCC1.N#CN=C=[N-] [1-butyl-1-methylpyrrolidinium dicyanamide] + O=C1CCCO1
electrical conductivity (Frequency=0.005454 MHz, x1 = 0.9013): 2.633 ± 0.026 S/m
electrical conductivity (Frequency=0.005454 MHz, x1 = 1): 2.529 ± 0.025 S/m
electrical conductivity (Frequency=0.006 MHz, x1 = 0.0463): 2.01 ± 0.037 S/m
electrical conductivity (Frequency=0.006 MHz, x1 = 0.0987): 3.08 ± 0.039 S/m
electrical conductivity (Frequency=0.006 MHz, x1 = 0.1449): 3.57 ± 0.038 S/m
electrical conductivity (Frequency=0.006 MHz, x1 = 0.1859): 3.86 ± 0.039 S/m
electrical conductivity (Frequency=0.006 MHz, x1 = 0.2493): 3.89 ± 0.039 S/m
electrical conductivity (Frequency=0.006 MHz, x1 = 0.3029): 3.88 ± 0.039 S/m
electrical conductivity (Frequency=0.006 MHz, x1 = 0.3845): 3.74 ± 0.038 S/m
electrical conductivity (Frequency=0.006 MHz, x1 = 0.4985): 3.46 ± 0.035 S/m
electrical conductivity (Frequency=0.006 MHz, x1 = 0.6954): 2.99 ± 0.03 S/m
electrical conductivity (Frequency=0.006 MHz, x1 = 0.9013): 2.633 ± 0.026 S/m
electrical conductivity (Frequency=0.006 MHz, x1 = 1): 2.529 ± 0.025 S/m
electrical conductivity (Frequency=0.00652174 MHz, x1 = 0.0463): 2.01 ± 0.037 S/m
electrical conductivity (Frequency=0.00652174 MHz, x1 = 0.0987): 3.08 ± 0.039 S/m
electrical conductivity (Frequency=0.00652174 MHz, x1 = 0.1449): 3.57 ± 0.038 S/m
electrical conductivity (Frequency=0.00652174 MHz, x1 = 0.1859): 3.86 ± 0.039 S/m
electrical conductivity (Frequency=0.00652174 MHz, x1 = 0.2493): 3.9 ± 0.039 S/m
electrical conductivity (Frequency=0.00652174 MHz, x1 = 0.3029): 3.88 ± 0.039 S/m
electrical conductivity (Frequency=0.00652174 MHz, x1 = 0.3845): 3.74 ± 0.038 S/m
electrical conductivity (Frequency=0.00652174 MHz, x1 = 0.4985): 3.46 ± 0.035 S/m
electrical conductivity (Frequency=0.00652174 MHz, x1 = 0.6954): 2.99 ± 0.03 S/m
electrical conductivity (Frequency=0.00652174 MHz, x1 = 0.9013): 2.63 ± 0.027 S/m
electrical conductivity (Frequency=0.00652174 MHz, x1 = 1): 2.529 ± 0.025 S/m
electrical conductivity (Frequency=0.00694444 MHz, x1 = 0.0463): 2.01 ± 0.037 S/m
electrical conductivity (Frequency=0.00694444 MHz, x1 = 0.0987): 3.08 ± 0.039 S/m
electrical conductivity (Frequency=0.00694444 MHz, x1 = 0.1449): 3.57 ± 0.038 S/m
electrical conductivity (Frequency=0.00694444 MHz, x1 = 0.1859): 3.86 ± 0.039 S/m
electrical conductivity (Frequency=0.00694444 MHz, x1 = 0.2493): 3.9 ± 0.039 S/m
electrical conductivity (Frequency=0.00694444 MHz, x1 = 0.3029): 3.88 ± 0.039 S/m
electrical conductivity (Frequency=0.00694444 MHz, x1 = 0.3845): 3.74 ± 0.038 S/m
electrical conductivity (Frequency=0.00694444 MHz, x1 = 0.4985): 3.46 ± 0.035 S/m
electrical conductivity (Frequency=0.00694444 MHz, x1 = 0.6954): 2.99 ± 0.03 S/m
electrical conductivity (Frequency=0.00694444 MHz, x1 = 0.9013): 2.63 ± 0.027 S/m
electrical conductivity (Frequency=0.00694444 MHz, x1 = 1): 2.529 ± 0.025 S/m
electrical conductivity (Frequency=0.0075 MHz, x1 = 0.0463): 2.01 ± 0.037 S/m
electrical conductivity (Frequency=0.0075 MHz, x1 = 0.0987): 3.08 ± 0.039 S/m
electrical conductivity (Frequency=0.0075 MHz, x1 = 0.1449): 3.57 ± 0.038 S/m
electrical conductivity (Frequency=0.0075 MHz, x1 = 0.1859): 3.86 ± 0.039 S/m
electrical conductivity (Frequency=0.0075 MHz, x1 = 0.2493): 3.9 ± 0.039 S/m
electrical conductivity (Frequency=0.0075 MHz, x1 = 0.3029): 3.88 ± 0.039 S/m
electrical conductivity (Frequency=0.0075 MHz, x1 = 0.3845): 3.74 ± 0.038 S/m
electrical conductivity (Frequency=0.0075 MHz, x1 = 0.4985): 3.46 ± 0.035 S/m
electrical conductivity (Frequency=0.0075 MHz, x1 = 0.6954): 2.99 ± 0.03 S/m
electrical conductivity (Frequency=0.0075 MHz, x1 = 0.9013): 2.63 ± 0.027 S/m
electrical conductivity (Frequency=0.0075 MHz, x1 = 1): 2.529 ± 0.025 S/m
electrical conductivity (Frequency=0.008 MHz, x1 = 0.0463): 2.01 ± 0.037 S/m
electrical conductivity (Frequency=0.008 MHz, x1 = 0.0987): 3.08 ± 0.039 S/m
electrical conductivity (Frequency=0.008 MHz, x1 = 0.1449): 3.57 ± 0.038 S/m
electrical conductivity (Frequency=0.008 MHz, x1 = 0.1859): 3.86 ± 0.039 S/m
electrical conductivity (Frequency=0.008 MHz, x1 = 0.2493): 3.9 ± 0.039 S/m
electrical conductivity (Frequency=0.008 MHz, x1 = 0.3029): 3.88 ± 0.039 S/m
electrical conductivity (Frequency=0.008 MHz, x1 = 0.3845): 3.74 ± 0.038 S/m
electrical conductivity (Frequency=0.008 MHz, x1 = 0.4985): 3.46 ± 0.035 S/m
electrical conductivity (Frequency=0.008 MHz, x1 = 0.6954): 2.99 ± 0.03 S/m
electrical conductivity (Frequency=0.008 MHz, x1 = 0.9013): 2.63 ± 0.027 S/m
electrical conductivity (Frequency=0.008 MHz, x1 = 1): 2.529 ± 0.025 S/m
electrical conductivity (Frequency=0.00857143 MHz, x1 = 0.0463): 2.01 ± 0.037 S/m
electrical conductivity (Frequency=0.00857143 MHz, x1 = 0.0987): 3.08 ± 0.039 S/m
electrical conductivity (Frequency=0.00857143 MHz, x1 = 0.1449): 3.57 ± 0.038 S/m
electrical conductivity (Frequency=0.00857143 MHz, x1 = 0.1859): 3.86 ± 0.039 S/m
electrical conductivity (Frequency=0.00857143 MHz, x1 = 0.2493): 3.9 ± 0.039 S/m
electrical conductivity (Frequency=0.00857143 MHz, x1 = 0.3029): 3.88 ± 0.039 S/m
electrical conductivity (Frequency=0.00857143 MHz, x1 = 0.3845): 3.74 ± 0.038 S/m
electrical conductivity (Frequency=0.00857143 MHz, x1 = 0.4985): 3.46 ± 0.035 S/m
electrical conductivity (Frequency=0.00857143 MHz, x1 = 0.6954): 2.99 ± 0.03 S/m
electrical conductivity (Frequency=0.00857143 MHz, x1 = 0.9013): 2.63 ± 0.027 S/m
electrical conductivity (Frequency=0.00857143 MHz, x1 = 1): 2.529 ± 0.025 S/m
electrical conductivity (Frequency=0.00892857 MHz, x1 = 0.0463): 2.01 ± 0.037 S/m
electrical conductivity (Frequency=0.00892857 MHz, x1 = 0.0987): 3.08 ± 0.039 S/m
electrical conductivity (Frequency=0.00892857 MHz, x1 = 0.1449): 3.57 ± 0.038 S/m
electrical conductivity (Frequency=0.00892857 MHz, x1 = 0.1859): 3.86 ± 0.039 S/m
electrical conductivity (Frequency=0.00892857 MHz, x1 = 0.2493): 3.9 ± 0.039 S/m
electrical conductivity (Frequency=0.00892857 MHz, x1 = 0.3029): 3.88 ± 0.039 S/m
electrical conductivity (Frequency=0.00892857 MHz, x1 = 0.3845): 3.74 ± 0.038 S/m
electrical conductivity (Frequency=0.00892857 MHz, x1 = 0.4985): 3.46 ± 0.035 S/m
electrical conductivity (Frequency=0.00892857 MHz, x1 = 0.6954): 2.99 ± 0.03 S/m
electrical conductivity (Frequency=0.00892857 MHz, x1 = 0.9013): 2.63 ± 0.027 S/m
electrical conductivity (Frequency=0.00892857 MHz, x1 = 1): 2.529 ± 0.025 S/m
electrical conductivity (Frequency=0.00961538 MHz, x1 = 0.0463): 2.01 ± 0.037 S/m
electrical conductivity (Frequency=0.00961538 MHz, x1 = 0.0987): 3.08 ± 0.039 S/m
electrical conductivity (Frequency=0.00961538 MHz, x1 = 0.1449): 3.57 ± 0.038 S/m
electrical conductivity (Frequency=0.00961538 MHz, x1 = 0.1859): 3.86 ± 0.039 S/m
electrical conductivity (Frequency=0.00961538 MHz, x1 = 0.2493): 3.9 ± 0.039 S/m
electrical conductivity (Frequency=0.00961538 MHz, x1 = 0.3029): 3.88 ± 0.039 S/m
electrical conductivity (Frequency=0.00961538 MHz, x1 = 0.3845): 3.74 ± 0.038 S/m
electrical conductivity (Frequency=0.00961538 MHz, x1 = 0.4985): 3.46 ± 0.035 S/m
electrical conductivity (Frequency=0.00961538 MHz, x1 = 0.6954): 3 ± 0.03 S/m
electrical conductivity (Frequency=0.00961538 MHz, x1 = 0.9013): 2.63 ± 0.027 S/m
electrical conductivity (Frequency=0.00961538 MHz, x1 = 1): 2.529 ± 0.025 S/m
electrical conductivity (Frequency=0.01 MHz, x1 = 0.0463): 2.01 ± 0.037 S/m
electrical conductivity (Frequency=0.01 MHz, x1 = 0.0987): 3.08 ± 0.039 S/m
electrical conductivity (Frequency=0.01 MHz, x1 = 0.1449): 3.57 ± 0.038 S/m
electrical conductivity (Frequency=0.01 MHz, x1 = 0.1859): 3.86 ± 0.039 S/m
electrical conductivity (Frequency=0.01 MHz, x1 = 0.2493): 3.9 ± 0.039 S/m
electrical conductivity (Frequency=0.01 MHz, x1 = 0.3029): 3.88 ± 0.039 S/m
electrical conductivity (Frequency=0.01 MHz, x1 = 0.3845): 3.74 ± 0.038 S/m
electrical conductivity (Frequency=0.01 MHz, x1 = 0.4985): 3.46 ± 0.035 S/m
electrical conductivity (Frequency=0.01 MHz, x1 = 0.6954): 3 ± 0.03 S/m
electrical conductivity (Frequency=0.01 MHz, x1 = 0.9013): 2.63 ± 0.027 S/m
electrical conductivity (Frequency=0.01 MHz, x1 = 1): 2.529 ± 0.025 S/m
mass density (x1 = 0.0987): 1082.02 ± 8.7 kg/m3
mass density (x1 = 0.1859): 1067.9 ± 8.6 kg/m3
mass density (x1 = 0.3029): 1051.93 ± 8.4 kg/m3
mass density (x1 = 0.4985): 1031.43 ± 8.3 kg/m3
mass density (x1 = 0.6954): 1016.21 ± 8.2 kg/m3
mass density (x1 = 0.9013): 1004.23 ± 8.1 kg/m3
mass density (x1 = 1): 999.525 ± 8 kg/m3

Reference: the NIST ThermoML archive (doi:10.1016/j.jct.2015.08.014)
